Read-outs that look alike come from different tables or passages of the source.
Test system: DMS79 cells
Assay: In vitro growth inhibition and isobologram analysis (CellTiter Glo): DMS79
Type: cell-based, human
Conditions: 5 days, read-out: IC50 (growth), DMS79, alone
Protocol: SCLC cells were seeded onto 96 well plates at 3000-5,000 cells/well on the day of treatment. To distinguish synergy from additivity of the combination of LY6H-PBD with Olaparib (selleckchem, Cat #S1060), etoposide (Cell Signaling Technology, Cat #2200S) or cisplatin (Sigma, Cat #P4394), for each combination, a specific isobologram was constructed. […] Concentrations ranging from 0.0001-10 ug/ml were used for 12G7-PBD, from 0.0001 to 100 uM for olaparib, cisplatin, and etoposide. Cell viability was measured 5 days later by CellTiter Glo® Luminescent Cell viability Assay™ (Promega, Madison, WI) according to manufacturer's instructions. Each IC50 was graphically derived from the growth curve graphed by Prism™ showing percent survival vs log drug concentrations.
The 50% growth-inhibitory activity of the drug combinations was measured after 5 days of treatment. The line of additivity for the isobologram was constructed by interpolating the two points corresponding to the IC50 of the two drugs alone. Graphically, synergy, additivity, and antagonism are indicated by a point plotted below, on, or above the line of additivity, respectively.

| SMILES | IC50 | IC50 (Homo sapiens, DMS-79, 120 h) |
| --- | --- | --- |
| N.N.[Cl][Pt][Cl] [cisplatin] | 310 nM |  |
| COc1cc([C@@H]2c3cc4c(cc3[C@@H](O[C@@H]3O[C@@H]5CO[C@@H](C)O[C@H]5[C@H](O)[C@H]3O)[C@H]3COC(=O)[C@H]23)OCO4)cc(OC)c1O [etoposide] |  | 290 nM |
| O=C(c1cc(Cc2n[nH]c(=O)c3ccccc23)ccc1F)N1CCN(C(=O)C2CC2)CC1 [olaparib] |  | 4070 nM |

From patent US12296006B2, “Anti-LY6H antibodies and antibody drug conjugates” (Bluefin BioMedicine, Inc., priority 2017, dated 2025)
